The subject of one data set is HCT 116 colon carcinoma. The experiment in a line: Growth inhibitory assay (MTT, 72 hr). In kind it is cell-based. The note with it: Homo sapiens, 72 hr exposure. As to the method: (§1) Compounds were prepared as 10 mM top stocks, dissolved in DMSO, and stored at 4° C., protected from light, for a maximum period of 4 weeks. Human derived cell lines (HCT 116, HT29 colon carcinoma; MCF-7 (ER+), MDA 468 (ER−) breast carcinoma; A549 lung adenocarcinoma) were routinely cultivated at 37° C. in an atmosphere of 5% CO2 in RPMI 1640 medium supplemented with 2 mM L-glutamine and 10% fetal calf serum and subcultured twice weekly to maintain continuous logarithmic growth. Cells were seeded into 96-well microtiter plates at a density of 5×10^3 per well and allowed 24 hr to adhere before drugs were introduced (final concentration 0.1 nM–100 μM, n=8). Serial drug dilutions were prepared in medium immediately prior to each assay. At the time of drug addition and following 72 hr exposure, MTT was added to each well (final concentration 400 µg/mL). Incubation at 37° C. for 4 hr allowed reduction of MTT by mitochondrial dehydrogenase to an insoluble formazan product. Well contents were aspirated and formazan solubilized by addition of DMSO:glycine buffer (pH 10.5) (4:1). Absorbance was measured using an Anthos Labtec systems plate reader at 550 nm, and used as a measure of cell viability; thus cell growth or drug toxicity was determined.

In data set [1] the test system is MDA 468 (ER−) breast carcinoma. The data set can be described thus: Growth inhibitory assay (MTT, 72 hr). It is filed as cell-based. The note with it: Homo sapiens, 72 hr exposure. As to the method: as §1
The subject of the next data set is HT29 colon carcinoma. The experiment in a line: Growth inhibitory assay (MTT, 72 hr). In kind it is cell-based. The conditions noted are these: Homo sapiens, HT-29, 72 hr exposure. The procedure: as §1
For data set [2], the system named is MCF-7 (ER+) breast carcinoma. The data set can be described thus: Growth inhibitory assay (MTT, 72 hr). The note with it: Homo sapiens, MCF7, 72 hr exposure. It is filed as cell-based. The procedure:
as §1

A further data set has as its system A549 lung adenocarcinoma. The experiment in a line: Growth inhibitory assay (MTT, 72 hr). In kind it is cell-based. The note with it: Homo sapiens, 72 hr exposure. The procedure:
as §1

The subject of data set [3] is 60 human cancer cell lines. The data set can be described thus: cells. It is filed as cell-based. The procedure: (§2) Compounds were tested for in vitro activity (48 h drug exposure) across 60 human cancer cell lines through the National Cancer Institute (NCI) Developmental Therapies Screening Program (Boyd et al., 1995).
For a further data set, the system named is colon sub-panel. The data set can be described thus: cells. It is filed as cell-based. The conditions noted are these: Homo sapiens, SW-620, read-out: mean LC50 in colon sub-panel. As to the method: as §2
For a further data set, the system named is renal sub-panel. The data set can be described thus: cells. In kind it is cell-based. The conditions noted are these: Homo sapiens, 60 cell, read-out: mean LC50 in renal sub-panel. The procedure: as §2
The subject of data set [4] is human renal tumor xenograft RXF 393. The data set can be described thus: In vivo antitumor activity, renal tumor xenograft. The conditions noted are these: for DT (tumor doubling time) / T/C (optimal test/control): days 1, 5; for GD (growth delay): days 1, 5, difference in days to double initial tumor volume; for BWC (maximal body weight change): days 1, 5, model induces cachexia.

Turning to `O=C1C=CC(O)(c2nc3ccccc3s2)C=C1` [Q05, 4-(Benzothiazol-2-yl)-4-hydroxy-2,5-cyclohexadien-1-one], the IC50 was 40 nM in the data set on HCT 116 colon carcinoma; 790 nM in data set [1]; 380 nM in the data set with HT29 colon carcinoma; 350 nM in data set [2]; 2350 nM with A549 lung adenocarcinoma. For the same compound, in [3] (Homo sapiens, 60 cell, 48 h, read-out: mean LC50), the CC50 worked out at 3390 nM. The 50% growth inhibitory concentration (GI50) in [3] (Homo sapiens, 60 cell, Table 5) amounted to 290 nM; in data set [3] (Homo sapiens, mean over NCI 60 cell panel, 48 h drug exposure), 230 nM. In data set [3] (NCI analysis), the “mean log10GI50” value is recorded as −6.63. In [3] (NCI analysis, certain colon and renal cells lines), this compound had a log10LC50 of less than −6.0. Moreover, the LC50 in the data set with colon sub-panel was 1760 nM. For the same compound, the mean LC50 in the data set with renal sub-panel came out at 1570 nM. Moreover, the “DT (tumor doubling time)” value in data set [4] (10 mg/kg i.p.) was determined as 3.0; in [4] (15 mg/kg i.p.), 2.6. Moreover, the entries for the “T/C (optimal test/control)” value in data set [4] (10 mg/kg i.p.) and in data set [4] (15 mg/kg i.p.) were 63 and 56, respectively. Besides, the “GD (growth delay)” value in [4] (10 mg/kg i.p.) was 0.9; in data set [4] (15 mg/kg i.p.), 0.5. Further, the “BWC (maximal body weight change)” value in [4] (10 mg/kg i.p.) is −16; in data set [4] (15 mg/kg i.p.), −19.

The record behind these values is US7144893B2, “4-aryl quinols and analogs thereof as therapeutic agents” (Cancer Research Technology Limited, priority 2001, dated 2006).
